In PubChem BioAssay AID1552 (Sanford-Burnham Center for Chemical Genomics, 2009):
Calls of active or inactive are those of the source. How the calls were made is not given here.

These compounds were tested against Ubiquitin-conjugating enzyme E2 N (Homo sapiens) (UniProt P61088) (assay: NMR detection of UBE2N ligand binding – biophysical, purified protein (AID 1552)). Details: NMR binding to purified UBE2N.
Chain of Ubiquitin-conjugating enzyme E2 N (Homo sapiens) (P61088 whole entry, looked up): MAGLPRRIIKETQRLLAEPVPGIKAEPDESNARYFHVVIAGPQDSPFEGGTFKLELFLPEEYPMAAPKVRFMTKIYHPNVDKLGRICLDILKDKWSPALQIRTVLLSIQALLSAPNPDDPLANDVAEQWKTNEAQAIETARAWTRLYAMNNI
`CC(=O)Nc1ccc(NC(=O)c2ccnn2C)cc1` was tested, and the Kd was > 4 mM (inactive). For `Cn1ncc(CO)c1-c1ccccc1`, the Kd was > 4 mM (inactive). In the case of `O=C1C2CC=CCC2C(=O)N1c1ccccc1` (stereo unspecified), the Kd is reported as > 4 mM (inactive). For `O=C(C1CCNCC1)N1CCCCCC1`, the Kd was > 4 mM (inactive). In the case of `O=C(c1ccco1)N1CCN(c2ccc(Cl)cc2)CC1`, the Kd is reported as > 4 mM (inactive). With `O=C(O)c1ccc2ccccc2n1` the Kd was > 4 mM (inactive). With `Nc1cc(=O)[nH]c(=S)n1-c1cccc(C(F)(F)F)c1` the Kd was > 4 mM (inactive). With `C[C@@H]1CC[C@@]2(NC1)O[C@H]1C[C@H]3C4CC=C5C[C@@H](O)CC[C@]5(C)C4CC[C@]3(C)C1[C@@H]2C` (stereo partly specified) the Kd was > 4 mM (inactive). For `N/C(=N/S(=O)(=O)c1cccs1)c1ccccc1`, the Kd was > 4 mM (inactive). For `CCc1ccc(C(=O)N2CCCC2)s1`, the Kd was > 4 mM (inactive). With `Nc1cccc2c(=O)[nH][nH]c(=O)c12` the Kd was > 4 mM (inactive). In the case of `Nc1nc2c3ccccc3nc(Cc3ccccc3)n2n1`, the Kd is reported as > 4 mM (inactive). For `Cc1nccc2c1[nH]c1ccccc12`, the Kd was > 4 mM (inactive). With `CC1=NN(C(N)=S)C(C)(C)C1` the Kd was > 4 mM (inactive). With `O=C(O)C1(S(=O)(=O)c2ccccc2)CC1` the Kd was > 4 mM (inactive). In the case of `O=C1CCCCCN1CO`, the Kd is reported as > 4 mM (inactive). With `CSc1nc2cc(F)c(F)cc2n1C` the Kd was > 4 mM (inactive). `O=C(CSc1ncn[nH]1)c1ccc2c(c1)OCCO2` was tested, and the Kd was > 4 mM (inactive). For `CN1CCN(CC(=O)Nc2ccccc2)CC1`, the Kd was > 4 mM (inactive). `O=C(O)c1ccc2nsnc2c1` was tested, and the Kd was > 4 mM (inactive). For `COCc1cc(C)nc2sc(C(=O)OC)c(N)c12`, the Kd was > 4 mM (inactive). In the case of `NNc1ncnc2sccc12`, the Kd is reported as > 4 mM (inactive). For `CC(C)=CCC1=C(O)c2ccccc2C(=O)C1=O`, the Kd was > 4 mM (inactive). With `Cc1ccc(C(=O)Nn2cnnc2)c(Cl)c1` the Kd was > 4 mM (inactive). `COCc1cc(=O)oc2cc(N)ccc12` was tested, and the Kd was > 4 mM (inactive). In the case of `Cc1ccccc1N1C(=O)CC(=O)NC1=O`, the Kd is reported as > 4 mM (inactive). With `CC1=C2C(=CO[C@H](C)[C@H]2C)C(=O)C(C(=O)O)=C1O` the Kd was > 4 mM (inactive). With `COc1ccc(C(N)=O)cc1NC(C)=O` the Kd was > 4 mM (inactive). With `C(=Nn1cnnc1)c1ccccc1` the Kd was > 4 mM (inactive). In the case of `O/N=C1/CCCc2nonc21`, the Kd is reported as > 4 mM (inactive). In the case of `CC(=O)c1cc(CN2C(=O)c3ccccc3C2=O)cs1`, the Kd is reported as > 4 mM (inactive). For `CC(=O)Nc1ccc(NC(C)=O)cc1`, the Kd was > 4 mM (inactive). In the case of `N/N=C1\CCCc2c1no[n+]2[O-]`, the Kd is reported as > 4 mM (inactive). With `CCOC(=O)c1c(C)nc2c(C#N)cnn2c1C` the Kd was > 4 mM (inactive). For `COc1c2occc2c(OC)c2c(=O)cc(C)oc12`, the Kd was > 4 mM (inactive). In the case of `Cc1cc(C)n2c(SCc3c(C)noc3C)nnc2n1`, the Kd is reported as > 4 mM (inactive). `CC(C)(O)[C@@H]1[C@H]2OC(=O)[C@@H]1[C@]1(O)C[C@H]3O[C@]34C(=O)O[C@H]2[C@]14C` was tested, and the Kd was > 4 mM (inactive). In the case of `CS(=O)(=O)N1CCC(C(=O)NC2CCCC2)CC1`, the Kd is reported as > 4 mM (inactive). `C=CCc1ccc(OC(=O)c2ccccc2)c(OC)c1` was tested, and the Kd was > 4 mM (inactive). In the case of `CC(C)CCCC(C)[C@H]1CCC2C3CC[C@@H]4C[C@H](O)CC[C@]4(C)C3CC[C@@]21C` (stereo partly specified), the Kd is reported as > 4 mM (inactive). With `O=c1[nH]cc(NCc2ccco2)c(=O)[nH]1` the Kd was > 4 mM (inactive). `Nc1ccc2c(C(F)(F)F)cc(=O)oc2c1` was tested, and the Kd was > 4 mM (inactive). `O=C(O)Cn1c(C(F)(F)F)nc2ccccc21` was tested, and the Kd was > 4 mM (inactive). In the case of `COc1cc2c(cc1OC)-c1cc3ccc(OC)c(OC)c3c[n+]1CC2`, the Kd is reported as > 4 mM (inactive). With `Cc1nnc(NCCCO)[nH]c1=O` the Kd was > 4 mM (inactive). For `O=C(O)c1ccc(-n2cccc2)cc1`, the Kd was > 4 mM (inactive). `CCOC(=O)Cc1cc(=O)n2[nH]c(C)cc2n1` was tested, and the Kd was > 4 mM (inactive). In the case of `O=c1[nH]nnc2sc3c(c12)CCCC3`, the Kd is reported as > 4 mM (inactive). In the case of `COc1c2ccoc2c(OC)c2oc(=O)ccc12`, the Kd is reported as > 4 mM (inactive). `C[C@H](CCC(=O)O)[C@H]1CCC2C3C(CC[C@@]21C)[C@@]1(C)CC[C@@H](O)C[C@H]1C[C@H]3O` (stereo partly specified) was tested, and the Kd was > 4 mM (inactive). For `CC1(C)N=C2C(=N)C=CC=C2N1O`, the Kd was > 4 mM (inactive). In the case of `COc1cc([C@@H]2c3cc4c(cc3[C@H](OC(C)=O)[C@H]3COC(=O)[C@@H]23)OCO4)cc(OC)c1OC`, the Kd is reported as > 4 mM (inactive). With `NC(=O)CSc1ccc(-c2ccccc2)nn1` the Kd was > 4 mM (inactive). With `Cc1sc2nc[nH]c(=S)c2c1C` the Kd was > 4 mM (inactive). `CC1CCC(N2CCN(c3ncccn3)CC2)CC1` (stereo unspecified) was tested, and the Kd was > 4 mM (inactive). With `CCCS(=O)(=O)N1CCN(c2ccccc2F)CC1` the Kd was > 4 mM (inactive). For `COc1ccc(N2C(=N)C(C)(C)NC2=O)cc1`, the Kd was > 4 mM (inactive). With `Cc1cc(O)c(C)c(O)c1C(=O)O` the Kd was > 4 mM (inactive). With `CN(C)N1C(=O)c2ccccc2C1=O` the Kd was > 4 mM (inactive). For `O=C(NCc1ccc2c(c1)OCO2)c1cccs1`, the Kd was > 4 mM (inactive). With `CS(=O)(=O)N/N=C/c1cccs1` the Kd was > 4 mM (inactive). For `N#CCSc1nc(-c2ccccc2)cs1`, the Kd was > 4 mM (inactive). For `COc1ccc(-c2cc(=O)c3c(O)cc(O[C@H]4O[C@H](CO[C@@H]5O[C@@H](C)[C@H](O)[C@@H](O)[C@H]5O)[C@@H](O)[C@H](O)[C@H]4O)cc3o2)cc1`, the Kd was > 4 mM (inactive). With `Cc1cc(C)n(CC(=O)O)n1` the Kd was > 4 mM (inactive). With `CC(=O)N1CCn2c3c(c(=O)c4cc(C)ccc42)CCC31` (stereo unspecified) the Kd was > 4 mM (inactive). In the case of `Cc1ccc(C(=O)N2CCC(C(N)=O)CC2)c(Cl)c1`, the Kd is reported as > 4 mM (inactive). For `CC(=O)Oc1ccc(-c2cc(=O)c3c(OC(C)=O)cc(OC(C)=O)cc3o2)cc1`, the Kd was > 4 mM (inactive). `CNC(=S)N1CCN=C1Nc1nc(C)cc(C)n1` was tested, and the Kd was > 4 mM (inactive). In the case of `O=c1cc(-c2cc(O)c(O)c(O)c2)oc2cc(O)cc(O)c12`, the Kd is reported as > 4 mM (inactive). In the case of `O=C(Nc1ccon1)c1cc2c(s1)CCCC2`, the Kd is reported as > 4 mM (inactive). With `CN(c1ccccc1C(=O)N1CCCC1)S(C)(=O)=O` the Kd was > 4 mM (inactive). For `CSc1ccccc1NC(=O)c1ccncc1`, the Kd was > 4 mM (inactive). With `O=C1NC2NC(=O)N(c3ccccc3)C2N1` (stereo unspecified) the Kd was > 4 mM (inactive). In the case of `CC(C)(C)c1ccc(SCC(N)=O)cc1`, the Kd is reported as > 4 mM (inactive). In the case of `C=CCCCCCCCCCCCC(O)CC(O)CO` (stereo unspecified) (tested in a mixture with another compound), the Kd is reported as > 4 mM (inactive). For `CC(C)CNc1cc(=O)n(C)c(=O)n1C`, the Kd was > 4 mM (inactive). In the case of `c1ccc(CN2CCC3(CC2)Nc2ccccc2CO3)cc1`, the Kd is reported as > 4 mM (inactive). `CC(=O)O[C@H]1C[C@@H](OC(C)=O)C(C)(C)C2CC(=O)[C@]3(C)C(CC[C@@]4(C)[C@H](C(=O)O)OC(=O)C5OC543)[C@]21C` (stereo partly specified) was tested, and the Kd was > 4 mM (inactive). `O=C1C=C(Nc2ccc(O)cc2)c2ccccc2C1=O` was tested, and the Kd was > 4 mM (inactive). `O=C(O)C1CSC2(CCCCC2)N1` (stereo unspecified) was tested, and the Kd was > 4 mM (inactive). For `CC(C(N)=O)N1C(=O)c2ccccc2C1=O` (stereo unspecified), the Kd was > 4 mM (inactive). In the case of `Cn1c(=O)c2c(ncn2CCN)n(C)c1=O`, the Kd is reported as > 4 mM (inactive). For `C=CCSCC=C`, the Kd was > 4 mM (inactive). `O=C(CSc1ncn[nH]1)c1ccccc1` was tested, and the Kd was > 4 mM (inactive). For `Cc1nc(SCC#N)c2c(C)c(C)sc2n1`, the Kd was > 4 mM (inactive). `CC[C@H]1CN2CCc3cc(OC)c(OC)cc3C2C[C@@H]1CC1NCCc2cc(OC)c(OC)cc21` (stereo partly specified) was tested, and the Kd was > 4 mM (inactive). With `C=CCn1c(=S)[nH]c2ccc(Br)cc2c1=O` the Kd was > 4 mM (inactive). `CC1(C)C(=O)C=C[C@@]2(C)C1C[C@@H](O)[C@]1(C)C2CC[C@@]2(C)[C@H](c3ccoc3)OC(=O)[C@H]3O[C@]321` (stereo partly specified) was tested, and the Kd was > 4 mM (inactive). `COc1ccc(/C=C2/NC(=S)NC2=O)cc1` was tested, and the Kd was > 4 mM (inactive). `c1ccc(Cc2nnc3sc(-c4cccnc4)nn23)cc1` was tested, and the Kd was > 4 mM (inactive). With `c1cncc(Nc2nc(-c3ccncc3)cs2)c1` the Kd was > 4 mM (inactive). In the case of `COC(=O)c1ccc2nsnc2c1`, the Kd is reported as > 4 mM (inactive). With `COc1cccc2c1CCC1=CC(=O)CC[C@@]12C` the Kd was > 4 mM (inactive). With `O=C(c1ccccc1)c1ccc(N2CCNCC2)cc1` the Kd was > 4 mM (inactive). In the case of `Cc1cc(Cl)ccc1NC(=O)C(N)=O`, the Kd is reported as > 4 mM (inactive). For `CN(c1ccccc1C(=O)N1CCOCC1)S(C)(=O)=O`, the Kd was > 4 mM (inactive). For `c1ccc(-c2nsc(N3CCNCC3)n2)cc1`, the Kd was > 4 mM (inactive). `CCc1ccc2oc(-c3cc(N)cc(C)c3O)nc2c1` was tested, and the Kd was > 4 mM (inactive). For `CC1(C)O[C@H]2[C@H](O)C[C@](O)(C(N)=O)C[C@H]2O1`, the Kd was > 4 mM (inactive). `Cc1ccc(C(=O)N2CCC(C(=O)O)CC2)cc1` was tested, and the Kd was > 4 mM (inactive). With `O=C(O)C1CSC(c2ccc(Cl)cc2)N1` (stereo unspecified) the Kd was > 4 mM (inactive). In the case of `CC(NC(=O)c1ccco1)C1CCCO1` (stereo unspecified), the Kd is reported as > 4 mM (inactive). With `O=C(O)CC1NCCNC1=O` (stereo unspecified) the Kd was > 4 mM (inactive). With `CN(C)C(=O)CCNS(=O)(=O)c1ccccc1` the Kd was > 4 mM (inactive). With `O=C1CCCC(=O)N1Cc1ccco1` the Kd was > 4 mM (inactive). `C[C@]12CCC3C(CC[C@]4(O)C[C@@H](O)CC[C@]34C=O)[C@@]1(O)CCC2C1=CC(=O)OC1` (stereo partly specified) was tested, and the Kd was > 4 mM (inactive). With `COc1ccc(-c2cc(=O)c3c(O)cc(O[C@@H]4O[C@H](CO[C@H]5O[C@H](C)[C@@H](O)[C@H](O)[C@@H]5O)[C@@H](O)[C@H](O)[C@H]4O)cc3o2)cc1O` the Kd was > 4 mM (inactive). In the case of `Cn1c2ccccc2n2c(=S)[nH]nc12`, the Kd is reported as > 4 mM (inactive). `O=C(O)CN1CCNCC1` was tested, and the Kd was > 4 mM (inactive). In the case of `COc1ccc2c(c1)OC[C@@H](Cc1ccc(OC)c(OC)c1)[C@H]2O`, the Kd is reported as > 4 mM (inactive). In the case of `Nc1n[nH]c(=S)n1-c1ccccc1`, the Kd is reported as > 4 mM (inactive). For `C/C1=C/CC(C)(C)/C=C/C/C(C)=C/CC1`, the Kd was > 4 mM (inactive). In the case of `NC(=O)C1CCN(Cc2ccccc2)CC1`, the Kd is reported as > 4 mM (inactive). For `O=C1Cc2ccccc2N1c1ccccc1`, the Kd was > 4 mM (inactive). `O=C(c1ccc(Cl)s1)N1CCOCC1` was tested, and the Kd was > 4 mM (inactive). `NC1C2CC3CC1CC(O)(C3)C2` (stereo unspecified) was tested, and the Kd was > 4 mM (inactive).
